In general, Kd refers to the free concentration of one partner at which half of the binding sites on the other are occupied at equilibrium, for simple one-to-one binding.

Active and inactive are the calls of the source. Rule as the data show it, for most assays here: actives have a measured Kd and inactives only a lower limit. A value given as a limit tells only on which side of the number the result lay.

The target of test [1] is Mitogen-activated protein kinase 11 (Homo sapiens, UniProt Q15759).
Test [2] deals with Cyclin-dependent kinase 6 (Homo sapiens, UniProt Q00534).
The target of test [3] is T1, Serine/threonine-protein kinase Nek9 (Homo sapiens, UniProt Q8TD19).
T1 sequence (Q8TD19 whole entry): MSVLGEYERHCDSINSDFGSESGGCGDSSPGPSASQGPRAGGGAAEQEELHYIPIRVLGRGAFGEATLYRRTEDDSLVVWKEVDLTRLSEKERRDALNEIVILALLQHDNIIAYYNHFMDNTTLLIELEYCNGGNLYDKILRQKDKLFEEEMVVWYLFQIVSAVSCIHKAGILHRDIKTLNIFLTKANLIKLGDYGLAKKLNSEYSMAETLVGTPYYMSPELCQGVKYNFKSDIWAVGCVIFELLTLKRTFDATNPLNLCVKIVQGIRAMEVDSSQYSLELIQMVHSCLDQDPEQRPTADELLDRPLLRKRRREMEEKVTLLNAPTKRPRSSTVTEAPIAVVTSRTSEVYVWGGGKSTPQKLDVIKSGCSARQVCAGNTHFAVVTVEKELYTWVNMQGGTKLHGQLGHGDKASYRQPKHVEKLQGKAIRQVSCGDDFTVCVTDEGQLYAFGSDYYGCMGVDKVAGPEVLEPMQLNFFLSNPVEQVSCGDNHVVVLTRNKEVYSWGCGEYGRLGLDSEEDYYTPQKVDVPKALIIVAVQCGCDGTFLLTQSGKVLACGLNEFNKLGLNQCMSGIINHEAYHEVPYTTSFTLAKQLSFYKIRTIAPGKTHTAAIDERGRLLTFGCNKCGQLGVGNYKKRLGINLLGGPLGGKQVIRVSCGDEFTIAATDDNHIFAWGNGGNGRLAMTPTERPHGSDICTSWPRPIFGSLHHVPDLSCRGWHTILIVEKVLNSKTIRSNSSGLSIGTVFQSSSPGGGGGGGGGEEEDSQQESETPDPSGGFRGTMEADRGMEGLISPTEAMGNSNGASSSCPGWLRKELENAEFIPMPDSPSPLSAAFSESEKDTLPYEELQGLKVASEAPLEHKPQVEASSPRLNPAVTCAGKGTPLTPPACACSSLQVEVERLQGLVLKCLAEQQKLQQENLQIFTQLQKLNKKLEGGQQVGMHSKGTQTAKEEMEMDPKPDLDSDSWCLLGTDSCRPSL

Test [4] addresses Calcium/calmodulin-dependent protein kinase type II subunit delta (Homo sapiens, UniProt Q13557).
The target in test [5] is Serine/threonine-protein kinase PAK 4 (Homo sapiens, UniProt O96013).
In test [6] the target is Insulin-like growth factor 1 receptor (Homo sapiens, UniProt P08069).
Test [7] has as its target Rho-associated protein kinase 1 (Homo sapiens, UniProt Q13464).
For test [8], the target named is Receptor-interacting serine/threonine-protein kinase 2 (Homo sapiens, UniProt O43353).
Test [9] has as its target T2, DNA replication licensing factor MCM4 (Homo sapiens, UniProt P33991).
T2 sequence (P33991 whole entry): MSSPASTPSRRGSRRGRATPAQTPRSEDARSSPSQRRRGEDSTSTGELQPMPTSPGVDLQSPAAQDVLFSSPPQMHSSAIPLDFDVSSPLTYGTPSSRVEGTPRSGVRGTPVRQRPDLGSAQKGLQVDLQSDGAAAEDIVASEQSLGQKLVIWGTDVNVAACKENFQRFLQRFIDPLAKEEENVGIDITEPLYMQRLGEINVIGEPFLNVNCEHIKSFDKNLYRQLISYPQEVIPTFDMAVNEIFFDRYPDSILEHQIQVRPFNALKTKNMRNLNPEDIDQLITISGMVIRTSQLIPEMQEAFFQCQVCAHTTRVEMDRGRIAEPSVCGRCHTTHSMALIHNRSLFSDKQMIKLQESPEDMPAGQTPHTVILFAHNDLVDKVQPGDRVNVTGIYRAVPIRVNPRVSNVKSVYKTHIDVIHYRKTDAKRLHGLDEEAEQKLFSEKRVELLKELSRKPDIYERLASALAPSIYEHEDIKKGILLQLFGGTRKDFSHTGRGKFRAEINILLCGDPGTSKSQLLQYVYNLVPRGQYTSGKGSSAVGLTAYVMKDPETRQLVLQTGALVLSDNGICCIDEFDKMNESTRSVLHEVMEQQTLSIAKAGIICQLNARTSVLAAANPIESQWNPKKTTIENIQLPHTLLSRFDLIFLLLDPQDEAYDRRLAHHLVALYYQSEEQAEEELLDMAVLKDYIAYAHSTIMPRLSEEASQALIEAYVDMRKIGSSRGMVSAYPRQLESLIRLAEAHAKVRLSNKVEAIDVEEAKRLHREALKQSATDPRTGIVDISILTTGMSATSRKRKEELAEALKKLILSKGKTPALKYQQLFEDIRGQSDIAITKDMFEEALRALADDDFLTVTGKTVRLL

Test [10] concerns the target T3, Beta-adrenergic receptor kinase 1 (Homo sapiens, UniProt P25098).
T3 sequence (P25098 whole entry): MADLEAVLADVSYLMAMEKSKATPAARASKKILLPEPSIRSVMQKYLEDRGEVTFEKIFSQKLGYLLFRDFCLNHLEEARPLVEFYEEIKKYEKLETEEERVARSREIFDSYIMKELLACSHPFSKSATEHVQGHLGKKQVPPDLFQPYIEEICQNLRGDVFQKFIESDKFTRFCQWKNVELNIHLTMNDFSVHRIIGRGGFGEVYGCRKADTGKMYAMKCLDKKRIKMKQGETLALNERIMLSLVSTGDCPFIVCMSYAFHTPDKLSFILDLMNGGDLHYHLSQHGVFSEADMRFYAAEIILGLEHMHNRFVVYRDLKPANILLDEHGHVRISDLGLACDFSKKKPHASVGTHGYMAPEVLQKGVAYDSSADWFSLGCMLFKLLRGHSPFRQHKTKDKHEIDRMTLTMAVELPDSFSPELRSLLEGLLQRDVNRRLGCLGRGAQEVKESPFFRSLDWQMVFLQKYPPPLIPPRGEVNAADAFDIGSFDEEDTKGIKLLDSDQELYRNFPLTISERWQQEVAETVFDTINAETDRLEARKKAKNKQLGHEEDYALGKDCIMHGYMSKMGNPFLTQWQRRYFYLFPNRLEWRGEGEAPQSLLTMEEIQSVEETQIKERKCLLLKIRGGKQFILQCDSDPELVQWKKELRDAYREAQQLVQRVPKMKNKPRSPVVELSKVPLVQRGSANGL

Test [11] deals with Ras-related protein Rab-6A (Homo sapiens, UniProt P20340).
Also: in the data inactive means no Kd found up to 30 µM.

Chain of Cyclin-dependent kinase 6 (Q00534 whole entry): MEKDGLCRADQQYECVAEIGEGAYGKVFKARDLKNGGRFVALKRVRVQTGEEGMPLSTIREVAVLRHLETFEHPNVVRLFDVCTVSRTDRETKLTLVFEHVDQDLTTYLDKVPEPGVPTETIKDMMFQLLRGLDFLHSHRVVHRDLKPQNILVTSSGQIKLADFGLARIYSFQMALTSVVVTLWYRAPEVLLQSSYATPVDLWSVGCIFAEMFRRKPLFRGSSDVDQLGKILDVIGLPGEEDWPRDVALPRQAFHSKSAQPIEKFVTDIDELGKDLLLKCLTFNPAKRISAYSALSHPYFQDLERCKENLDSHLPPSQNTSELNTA
Chain of Rho-associated protein kinase 1 (Q13464 whole entry): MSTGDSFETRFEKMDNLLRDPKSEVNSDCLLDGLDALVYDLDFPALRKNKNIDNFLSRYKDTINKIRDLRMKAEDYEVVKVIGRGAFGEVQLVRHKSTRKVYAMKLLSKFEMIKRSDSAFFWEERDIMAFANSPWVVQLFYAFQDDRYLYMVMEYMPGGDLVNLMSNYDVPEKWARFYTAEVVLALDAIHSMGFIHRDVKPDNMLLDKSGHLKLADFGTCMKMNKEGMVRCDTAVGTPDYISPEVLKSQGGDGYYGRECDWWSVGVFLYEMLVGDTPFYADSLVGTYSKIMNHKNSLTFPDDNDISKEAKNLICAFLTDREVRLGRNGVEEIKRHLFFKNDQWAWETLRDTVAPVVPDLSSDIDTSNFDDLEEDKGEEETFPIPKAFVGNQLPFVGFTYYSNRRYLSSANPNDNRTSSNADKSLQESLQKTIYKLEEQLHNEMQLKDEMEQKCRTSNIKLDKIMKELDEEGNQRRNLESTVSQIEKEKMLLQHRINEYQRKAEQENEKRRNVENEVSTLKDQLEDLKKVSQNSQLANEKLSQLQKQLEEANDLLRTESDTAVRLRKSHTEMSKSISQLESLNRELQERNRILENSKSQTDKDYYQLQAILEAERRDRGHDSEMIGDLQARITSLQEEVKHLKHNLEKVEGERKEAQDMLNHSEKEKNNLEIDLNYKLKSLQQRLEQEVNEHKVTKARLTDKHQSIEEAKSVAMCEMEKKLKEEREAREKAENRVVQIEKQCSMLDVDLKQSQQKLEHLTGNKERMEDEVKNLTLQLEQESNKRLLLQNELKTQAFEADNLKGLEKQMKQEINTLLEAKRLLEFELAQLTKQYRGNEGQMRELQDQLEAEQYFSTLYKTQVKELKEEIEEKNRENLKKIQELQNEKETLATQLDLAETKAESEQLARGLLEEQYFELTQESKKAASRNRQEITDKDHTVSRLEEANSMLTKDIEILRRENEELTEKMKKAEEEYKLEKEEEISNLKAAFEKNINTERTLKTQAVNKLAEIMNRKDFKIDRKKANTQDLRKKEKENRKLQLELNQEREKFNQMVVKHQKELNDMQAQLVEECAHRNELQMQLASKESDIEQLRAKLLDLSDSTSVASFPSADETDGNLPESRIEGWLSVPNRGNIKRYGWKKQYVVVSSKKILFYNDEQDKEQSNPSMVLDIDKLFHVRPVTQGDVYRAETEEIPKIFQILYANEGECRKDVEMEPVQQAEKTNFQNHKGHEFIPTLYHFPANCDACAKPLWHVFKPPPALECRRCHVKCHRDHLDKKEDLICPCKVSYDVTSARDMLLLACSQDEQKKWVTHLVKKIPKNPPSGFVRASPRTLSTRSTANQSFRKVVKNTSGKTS
Chain of Mitogen-activated protein kinase 11 (Q15759 whole entry): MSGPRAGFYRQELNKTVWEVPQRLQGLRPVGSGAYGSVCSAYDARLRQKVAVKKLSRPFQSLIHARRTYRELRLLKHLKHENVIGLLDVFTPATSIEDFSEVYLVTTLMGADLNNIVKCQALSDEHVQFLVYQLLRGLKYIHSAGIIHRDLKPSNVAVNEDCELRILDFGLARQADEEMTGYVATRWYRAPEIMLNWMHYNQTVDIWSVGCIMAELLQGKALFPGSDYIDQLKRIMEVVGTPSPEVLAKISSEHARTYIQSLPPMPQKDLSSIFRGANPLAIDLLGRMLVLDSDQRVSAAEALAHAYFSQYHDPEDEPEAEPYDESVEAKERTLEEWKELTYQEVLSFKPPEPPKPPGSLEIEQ
Chain of Serine/threonine-protein kinase PAK 4 (O96013 whole entry): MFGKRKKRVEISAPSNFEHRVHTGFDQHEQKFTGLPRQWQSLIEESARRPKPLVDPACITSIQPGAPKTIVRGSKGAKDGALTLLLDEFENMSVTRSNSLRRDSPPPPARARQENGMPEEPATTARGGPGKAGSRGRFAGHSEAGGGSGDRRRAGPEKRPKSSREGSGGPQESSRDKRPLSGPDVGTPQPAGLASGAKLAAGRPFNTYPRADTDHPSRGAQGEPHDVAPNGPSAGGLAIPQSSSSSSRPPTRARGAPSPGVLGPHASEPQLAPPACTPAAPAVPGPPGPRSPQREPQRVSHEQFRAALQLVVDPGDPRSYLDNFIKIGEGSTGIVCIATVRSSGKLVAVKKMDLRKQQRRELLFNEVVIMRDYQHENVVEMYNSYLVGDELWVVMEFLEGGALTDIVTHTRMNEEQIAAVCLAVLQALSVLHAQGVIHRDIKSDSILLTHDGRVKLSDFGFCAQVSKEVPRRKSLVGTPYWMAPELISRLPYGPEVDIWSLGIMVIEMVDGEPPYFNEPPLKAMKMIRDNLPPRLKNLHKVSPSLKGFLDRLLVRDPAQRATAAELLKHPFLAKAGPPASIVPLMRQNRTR
Chain of Insulin-like growth factor 1 receptor (P08069 31-736 limits assumed): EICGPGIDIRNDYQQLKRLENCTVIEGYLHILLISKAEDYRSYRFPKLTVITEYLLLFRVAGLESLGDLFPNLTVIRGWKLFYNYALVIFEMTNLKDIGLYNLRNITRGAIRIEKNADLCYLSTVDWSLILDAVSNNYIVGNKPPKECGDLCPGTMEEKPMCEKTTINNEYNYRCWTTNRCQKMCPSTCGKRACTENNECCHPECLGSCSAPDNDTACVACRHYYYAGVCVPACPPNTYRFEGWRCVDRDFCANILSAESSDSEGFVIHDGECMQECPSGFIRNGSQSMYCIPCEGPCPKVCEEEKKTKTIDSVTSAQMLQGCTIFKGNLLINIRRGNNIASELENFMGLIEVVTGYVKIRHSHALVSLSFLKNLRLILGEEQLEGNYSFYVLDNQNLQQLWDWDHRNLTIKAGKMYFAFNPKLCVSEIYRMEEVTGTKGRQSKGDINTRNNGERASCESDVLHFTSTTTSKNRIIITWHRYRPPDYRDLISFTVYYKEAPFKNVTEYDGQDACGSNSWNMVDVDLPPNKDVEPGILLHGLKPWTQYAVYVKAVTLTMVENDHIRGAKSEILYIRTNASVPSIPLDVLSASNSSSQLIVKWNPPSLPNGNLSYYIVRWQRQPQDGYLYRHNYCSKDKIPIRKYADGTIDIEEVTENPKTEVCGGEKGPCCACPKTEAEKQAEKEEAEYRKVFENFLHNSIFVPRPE
Chain of Insulin-like growth factor 1 receptor (P08069 741-1367 limits assumed): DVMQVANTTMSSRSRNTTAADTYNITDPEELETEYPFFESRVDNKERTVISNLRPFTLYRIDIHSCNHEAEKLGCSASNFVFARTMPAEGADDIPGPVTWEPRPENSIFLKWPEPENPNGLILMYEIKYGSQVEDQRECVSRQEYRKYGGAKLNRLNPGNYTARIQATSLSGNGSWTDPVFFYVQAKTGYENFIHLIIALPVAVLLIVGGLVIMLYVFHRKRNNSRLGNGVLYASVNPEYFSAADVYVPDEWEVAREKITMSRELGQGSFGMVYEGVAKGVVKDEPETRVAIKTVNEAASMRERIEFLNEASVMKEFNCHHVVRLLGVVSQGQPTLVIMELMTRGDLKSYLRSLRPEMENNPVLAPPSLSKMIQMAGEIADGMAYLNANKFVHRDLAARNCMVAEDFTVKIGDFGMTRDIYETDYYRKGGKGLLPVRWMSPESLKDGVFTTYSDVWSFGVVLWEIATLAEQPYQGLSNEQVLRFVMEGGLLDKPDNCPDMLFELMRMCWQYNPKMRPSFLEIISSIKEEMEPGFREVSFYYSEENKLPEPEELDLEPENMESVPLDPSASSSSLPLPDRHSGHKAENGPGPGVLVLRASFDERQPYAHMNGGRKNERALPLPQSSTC
Chain of Receptor-interacting serine/threonine-protein kinase 2 (O43353 whole entry): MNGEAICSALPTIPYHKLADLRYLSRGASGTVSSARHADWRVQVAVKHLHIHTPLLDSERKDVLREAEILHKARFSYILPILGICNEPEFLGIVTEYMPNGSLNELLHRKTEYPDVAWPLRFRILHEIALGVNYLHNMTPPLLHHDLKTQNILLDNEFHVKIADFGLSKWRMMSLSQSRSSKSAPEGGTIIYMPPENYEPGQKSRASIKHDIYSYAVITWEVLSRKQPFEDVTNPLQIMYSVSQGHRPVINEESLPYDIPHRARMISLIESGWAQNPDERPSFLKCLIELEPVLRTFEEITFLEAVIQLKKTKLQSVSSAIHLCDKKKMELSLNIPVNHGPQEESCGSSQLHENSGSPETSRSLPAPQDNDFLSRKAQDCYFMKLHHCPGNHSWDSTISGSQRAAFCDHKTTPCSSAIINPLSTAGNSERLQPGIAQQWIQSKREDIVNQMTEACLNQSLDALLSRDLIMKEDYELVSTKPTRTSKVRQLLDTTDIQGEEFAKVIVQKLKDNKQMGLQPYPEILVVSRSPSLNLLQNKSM
Chain of Calcium/calmodulin-dependent protein kinase type II subunit delta (Q13557 whole entry): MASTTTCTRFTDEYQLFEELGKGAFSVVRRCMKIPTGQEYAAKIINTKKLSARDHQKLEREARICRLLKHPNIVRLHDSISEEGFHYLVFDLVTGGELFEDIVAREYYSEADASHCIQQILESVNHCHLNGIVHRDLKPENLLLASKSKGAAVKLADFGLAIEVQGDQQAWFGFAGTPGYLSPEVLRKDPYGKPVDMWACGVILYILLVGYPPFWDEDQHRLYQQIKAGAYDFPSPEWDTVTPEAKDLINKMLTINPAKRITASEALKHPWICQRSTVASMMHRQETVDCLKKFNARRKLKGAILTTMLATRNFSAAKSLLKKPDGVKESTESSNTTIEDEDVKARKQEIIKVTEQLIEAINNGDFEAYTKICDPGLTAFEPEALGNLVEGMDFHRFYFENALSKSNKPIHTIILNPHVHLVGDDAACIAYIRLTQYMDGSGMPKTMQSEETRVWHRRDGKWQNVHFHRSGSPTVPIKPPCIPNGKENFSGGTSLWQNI

With `Cc1ccc(NC(=O)c2ccc(CN3CC[C@H](N(C)C)C3)c(C(F)(F)F)c2)cc1Nc1nccc(-c2cncnc2)n1` [BAFETINIB], the Kd in test [1] is 1.72 µM; in test [2], > 30 µM (inactive); in [3], > 30 µM (inactive); in [4], > 30 µM (inactive); in test [5], > 30 µM (inactive); in [6] it was > 30 µM (inactive). Also, the Kd in test [7] is > 30 µM (inactive); in [8], 1.47 µM (active); in test [9], > 30 µM (inactive); in [10], > 30 µM (inactive).

In the case of `C[C@@H]1CN(Cc2ccc(F)cc2)[C@@H](C)CN1C(=O)c1cc2c(C(=O)C(=O)N(C)C)cn(C)c2cc1Cl` [TALMAPIMOD], the Kd in test [2], in [3], in [4], in test [5], in [6] and in [7] was > 30 µM (inactive) throughout. For the same compound, the Kd in [8], in test [9], in test [10] and in test [11] was > 30 µM (inactive) in each case.

Turning to `Cn1cc(-c2ccc3nnc(C(F)(F)c4ccc5ncccc5c4)n3n2)cn1` [JNJ-38877605], the Kd in [1], in test [2], in [3], in [4], in [5] and in test [6] was > 30 µM (inactive) throughout. In addition, the Kd in test [7], in [8], in test [10] and in test [11] was > 30 µM (inactive) throughout.

Turning to `Cc1c(F)cc(C(=O)NC2CC2)cc1-c1ccc(C(=O)NCC(C)(C)C)cn1` [LOSMAPIMOD], the Kd in test [2], in test [3], in test [4], in test [5], in test [6] and in test [7] was > 30 µM (inactive) throughout. The Kd in test [8], in test [9], in test [10] and in test [11] was > 30 µM (inactive) each time.

Regarding `CNC(=O)c1ccc(-c2cnc3ncc(Cc4ccc5ncccc5c4)n3n2)cc1F` [CAPMATINIB], the Kd in [1], in test [2], in test [3], in test [4], in test [5] and in [6] was > 30 µM (inactive) in each case. In addition, the Kd in test [7], in test [8], in test [9] and in [10] was > 30 µM (inactive) each time.

Take `CNC(=O)c1ccc(C)c(-n2c(C)cc(OCc3ccc(F)cc3F)c(Br)c2=O)c1` [PH-797804]: the Kd in test [2], in test [3], in test [4], in [5], in [6] and in test [7] was > 30 µM (inactive) in each case. The Kd in test [8], in test [9], in [10] and in test [11] was > 30 µM (inactive) throughout.

Regarding `COc1cc(OC)c(/C=C/S(=O)(=O)Cc2ccc(OC)c(NCC(=O)O)c2)c(OC)c1` [RIGOSERTIB], the Kd in test [1], in [2], in test [3], in test [4], in [5] and in test [6] was > 30 µM (inactive) throughout. Moreover, the Kd in test [7], in test [8], in test [10] and in [11] was > 30 µM (inactive) throughout.

As to `COC(=O)[C@@]1(O)C[C@H]2O[C@]1(C)n1c3ccccc3c3c4c(c5c6ccccc6n2c5c31)C(=O)NC4` [K-252A], the Kd in test [1] was > 30 µM (inactive); in test [2], 0.399 µM (active); in test [3], > 30 µM (inactive); in test [4], 0.19 µM (active); in test [5], 0.344 µM (active); in [6], > 30 µM (inactive). In addition, the Kd in test [7], in [9], in test [10] and in test [11] was > 30 µM (inactive) in each case.

`C1=C/COCc2cc(ccc2OCCN2CCCC2)Nc2nccc(n2)-c2cccc(c2)COC/1` [PACRITINIB]: the Kd in test [1] is > 30 µM (inactive); in test [2] it was > 30 µM (inactive); in test [3] it was 1.78 µM (active); in [4], > 30 µM (inactive); in test [5] it was > 30 µM (inactive); in test [6], > 30 µM (inactive). Further, the Kd in test [7], in [8], in [10] and in [11] was > 30 µM (inactive) each time.

For the compound `Cn1cc(-c2ccc(F)c(C(F)(F)F)c2)nc1C1CCN(c2ncnc3[nH]ncc23)CC1` [LY-2584702], the Kd in [1], in [2], in test [3], in test [4], in test [5] and in test [6] was > 30 µM (inactive) each time. The Kd in test [7], in test [8], in test [10] and in test [11] was > 30 µM (inactive) in each case.

For the origin of these results see ChEMBL document CHEMBL3991601, “The target landscape of clinical kinase drugs” (Science, 2017).
